Patent publication US12419905B2, “Methods and compositions for the treatment of amyloid-related disorders” (YALE UNIVERSITY, priority 2018, dated 2025)

How the values were obtained:
[1] = tested on: Aßo/PrP^C interaction in stably PrP^C-transfected CV1 cells; assay type: cell-based, rat
[2] = tested on: APP/PS1 transgenic Alzheimer's model mice; test: Morris water maze in APP/PS1 mice; assay type: in vivo, mouse; settings: fresh ceftazidime (as Fortaz) 100 mg/kg IP BID
Procedure: For Morris water maze, mice were randomly assigned to treatment groups and the experimenter was unaware of both genotype and treatment group. Groups were balanced for age, sex, and weight. Mice used were 12-14 months of age at experiment initiation. During treatment, the experimenter was blinded to genotype. For drug treated mice, Poly(4-styrenesulfonic acid co-maleic acid) was administered by twice daily oral gavage of 5.0 mg and 15.0 mg Poly(4-styrenesulfonic acid co-maleic acid) per kg body weight in a vehicle of 0.5% w/v hydroxypropyl methylcellulose and 0.1% w/v polysorbate 80 to APP/PS1 and WT mice, respectively. Vehicle treated animals were gavaged twice daily with vehicle. 500 mg ceftazidime as Fortaz was dissolved per manufacturer's instructions in 1.5 ml sterile milliQ H2O to obtain 333 mg/ml in sodium carbonate solution. Animals treated peripherally with fresh ceftazidime were injected directly after dissolution intraperitoneally with 100 mg ceftazidime per kg body weight in a vehicle of PBS. Animals treated centrally with aged ceftazidime were fitted with an intracerebroventricular cannula (Alzet brain infusion kit 0008663) and subcutaneous osmotic minipump (Alzet model 1004) loaded with aged ceftazidime diluted in PBS. All animals were treated for 4 weeks prior to the Morris water maze and throughout assessment. […]

SMILES	Aßo/PrP^C interaction-inhibiting activity, aged drug [1]	Aßo/PrP^C interaction-inhibiting activity, fresh drug [1]	MWM latency to hidden platform, effect of treatment [2]
CO/N=C(\C(=O)N[C@@H]1C(=O)N2C(C(=O)O)=C(COC(C)=O)CS[C@H]12)c1csc(N)n1 [cefotaxime]	zero activity	zero activity	–
CC(C)(O/N=C(\C(=O)N[C@@H]1C(=O)N2C(C(=O)[O-])=C(C[n+]3ccccc3)CS[C@H]12)c1csc(N)n1)C(=O)O [ceftazidime]	exhibited activity	–	no detectable effect
CO/N=C(\C(=O)N[C@@H]1C(=O)N2C(C(=O)O)=C(CSc3nc(=O)c(=O)[nH]n3C)CS[C@H]12)c1csc(N)n1 [ceftriaxone]	zero activity	zero activity	–
